Data published in the supplement of paper PMC4862054.

Key:
CAL-120 = assay: normalised viability (% of control), CellTiter-Blue; higher = more viable cells (about 100 = DMSO control); conditions: incubation time: 72 h
Procedure: (§1)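 DSRT, CellTiter-Blue viability, 72 h incubation. Signal is normalised to DMSO and benzethonium chloride controls. Value is the normalised response at dose 3.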

MDA-MB-231 [1] = assay: as above; conditions: incubation time: 72 h
Procedure: as §1

BT-549 = assay: as above; conditions: incubation time: 72 h
Procedure: as §1

HCC1937 = assay: as above; conditions: incubation time: 72 h
Procedure: as §1

HCC1599 = assay: as above; conditions: incubation time: 72 h
Procedure: as §1

Hs578T = assay: as above; conditions: incubation time: 72 h
Procedure: as §1

SK-BR-3 = assay: as above; conditions: incubation time: 72 h
Procedure: as §1

CAL-85-1 [2] = assay: as above; conditions: incubation time: 72 h
Procedure: as §1

MDA-MB-468 = assay: as above; conditions: incubation time: 72 h
Procedure: as §1

MFM-223 [3] = assay: as above; conditions: incubation time: 72 h
Procedure: as §1

DU-4475 [4] = assay: as above; conditions: incubation time: 72 h
Procedure: as §1

CAL-148 [5] = assay: as above; conditions: incubation time: 72 h
Procedure: as §1

MDA-MB-436 [6] = assay: as above; conditions: incubation time: 72 h
Procedure: as §1

MDA-MB-453 [7] = assay: as above; conditions: incubation time: 72 h
Procedure: as §1

CAL-51 [8] = assay: as above; conditions: incubation time: 72 h
Procedure: as §1

BT-474 [9] = assay: as above; conditions: incubation time: 72 h
Procedure: as §1

HCC1143 = assay: as above; conditions: incubation time: 72 h
Procedure: as §1

HDQ-P1 = assay: as above; conditions: incubation time: 72 h
Procedure: as §1

CAL-148 [10] = conditions: 72 h
Method in brief: (§2)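 Viability of breast cancer cell lines was measured with CellTiter-Blue after 72 h of incubation on compound-loaded 384-well plates. Cells were seeded in 20 µl onto compound dissolved in 5 µl medium, and 2.5 µl reagent was added for 2 h at 37 °C before reading at 560/590 nm. EC50 was fitted from percent-inhibition dose-response data censored at the highest concentration, normalised per plate to vehicle and a positive kill control, with zero drug sensitivity score rows dropped.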

CAL-51 [11] = conditions: 72 h
Method in brief: as §2

MDA-MB-231 [12] = assay: normalised viability (% of control), CellTiter-Blue; higher = more viable cells (about 100 = DMSO control); conditions: incubation time: 72 h; remark: listed apart in the source
Method in brief: (§3)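 Compound dissolved in 5 µl medium was pre-loaded into 384-well plates, and breast cancer cell lines in 20 µl suspension were seeded on top and incubated 72 h. After adding 2.5 µl CellTiter-Blue reagent for 2 h at 37 °C, fluorescence was read at 560/590 nm. Plates were normalised to vehicle (100) and a positive kill control (0), with Z'-factor quality control. Each value is normalised viability at a single listed concentration from the series.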

CAL-85-1 [13] = assay: as above; conditions: incubation time: 72 h; remark: listed apart in the source
Method in brief: as §3

MFM-223 [14] = assay: as above; conditions: incubation time: 72 h; remark: listed apart in the source
Method in brief: as §3

DU-4475 [15] = assay: as above; conditions: incubation time: 72 h; remark: listed apart in the source
Method in brief: as §3

MDA-MB-436 [16] = assay: as above; conditions: incubation time: 72 h; remark: listed apart in the source
Method in brief: as §3

MDA-MB-453 [17] = assay: as above; conditions: incubation time: 72 h; remark: listed apart in the source
Method in brief: as §3

CAL-51 [18] = assay: as above; conditions: incubation time: 72 h; remark: listed apart in the source
Method in brief: as §3

BT-474 [19] = assay: as above; conditions: incubation time: 72 h; remark: listed apart in the source
Method in brief: as §3

Cc1c2oc3c(C)ccc(C(=O)N[C@@H]4C(=O)N[C@H](C(C)C)C(=O)N5CCC[C@H]5C(=O)N(C)CC(=O)N(C)[C@@H](C(C)C)C(=O)O[C@@H]4C)c3nc-2c(C(=O)N[C@@H]2C(=O)N[C@H](C(C)C)C(=O)N3CCC[C@H]3C(=O)N(C)CC(=O)N(C)[C@@H](C(C)C)C(=O)O[C@@H]2C)c(N)c1=O [Dactinomycin]
Conditions | normalised viability [%]
BT-474 [9], 10 nM | 73.5
BT-474 [19], 1 nM | 73.3
BT-474 [19], 100 nM | 25.2
BT-474 [19], 1000 nM | 24.1
BT-549, 10 nM | 17.8
CAL-51 [8], 1 nM | 77
CAL-51 [18], 0.3 nM | 99.7
CAL-51 [18], 3 nM | 50
CAL-51 [18], 10 nM | 17.8
CAL-85-1 [2], 1 nM | 50.3
CAL-85-1 [13], 0.3 nM | 79.1
CAL-85-1 [13], 3 nM | 43.6
CAL-85-1 [13], 10 nM | 40.8
CAL-120, 10 nM | 31.4
CAL-148 [5], 1 nM | 46.5
DU-4475 [4], 1 nM | 32.1
DU-4475 [15], 0.3 nM | 89.3
DU-4475 [15], 3 nM | 2.85
DU-4475 [15], 10 nM | 0.2
HCC1143, 10 nM | 46.5
HCC1599, 10 nM | 49.3
HCC1937, 10 nM | 41.3
HDQ-P1, 1 nM | 59.2
Hs578T, 10 nM | 23.3
MDA-MB-231 [1], 10 nM | 27.3
MDA-MB-231 [12], 1 nM | 53.3
MDA-MB-231 [12], 100 nM | 7.55
MDA-MB-231 [12], 1000 nM | 5.39
MDA-MB-436 [6], 10 nM | 46.4
MDA-MB-436 [16], 1 nM | 48.8
MDA-MB-436 [16], 100 nM | 13.1
MDA-MB-436 [16], 1000 nM | 9.7
MDA-MB-453 [7], 1 nM | 49.7
MDA-MB-453 [17], 0.3 nM | 85.1
MDA-MB-453 [17], 3 nM | 42.9
MDA-MB-453 [17], 10 nM | 40.5
MDA-MB-468, 10 nM | 18.9
MFM-223 [3], 10 nM | 67.5
MFM-223 [14], 1 nM | 86.2
MFM-223 [14], 100 nM | 8.99
MFM-223 [14], 1000 nM | 10.4
SK-BR-3, 10 nM | 24.6

Conditions | EC50, CellTiter-Blue viability [nM]
CAL-51 [11] | 2.72
CAL-148 [10] | 0.76

COc1cccc2c1C(=O)c1c(O)c3c(c(O)c1C2=O)C[C@@](O)(C(=O)CO)C[C@@H]3O[C@H]1C[C@H](N)[C@H](O)[C@H](C)O1 [Doxorubicin]
Conditions | normalised viability [%]
BT-474 [9], 10 nM | 95.5
BT-474 [19], 1 nM | 97.3
BT-474 [19], 100 nM | 84.7
BT-474 [19], 1000 nM | 34.1
BT-549, 10 nM | 98.9
CAL-51 [8], 1 nM | 105
CAL-51 [18], 0.3 nM | 102
CAL-51 [18], 3 nM | 100
CAL-51 [18], 10 nM | 96.2
CAL-85-1 [2], 1 nM | 95.7
CAL-85-1 [13], 0.3 nM | 90
CAL-85-1 [13], 3 nM | 92.3
CAL-85-1 [13], 10 nM | 90.4
CAL-120, 10 nM | 84.6
CAL-148 [5], 1 nM | 96.6
DU-4475 [4], 1 nM | 103
DU-4475 [15], 0.3 nM | 93.8
DU-4475 [15], 3 nM | 91.6
DU-4475 [15], 10 nM | 64
HCC1143, 10 nM | 83.4
HCC1599, 10 nM | 102
HCC1937, 10 nM | 98.9
HDQ-P1, 1 nM | 108
Hs578T, 10 nM | 99.5
MDA-MB-231 [1], 10 nM | 78.6
MDA-MB-231 [12], 1 nM | 85.1
MDA-MB-231 [12], 100 nM | 64.4
MDA-MB-231 [12], 1000 nM | 25.8
MDA-MB-436 [6], 10 nM | 92.4
MDA-MB-436 [16], 1 nM | 90.6
MDA-MB-436 [16], 100 nM | 64.5
MDA-MB-436 [16], 1000 nM | 18.2
MDA-MB-453 [7], 1 nM | 99.1
MDA-MB-453 [17], 0.3 nM | 105
MDA-MB-453 [17], 3 nM | 102
MDA-MB-453 [17], 10 nM | 101
MDA-MB-468, 10 nM | 98.8
MFM-223 [3], 10 nM | 89.4
MFM-223 [14], 1 nM | 91.8
MFM-223 [14], 100 nM | 98
MFM-223 [14], 1000 nM | 21.4
SK-BR-3, 10 nM | 75.6

Conditions | EC50, CellTiter-Blue viability [nM]
CAL-51 [11] | 164
CAL-148 [10] | 53.3

COc1cc(Nc2ncc3c(n2)-c2ccc(Cl)cc2C(c2c(F)cccc2OC)=NC3)ccc1C(=O)O [MLN8237]
Conditions | normalised viability [%]
BT-474 [9], 100 nM | 72.6
BT-474 [19], 10 nM | 103
BT-474 [19], 1000 nM | 82.9
BT-474 [19], 10000 nM | 58.5
BT-549, 100 nM | 62.2
CAL-51 [8], 10 nM | 98.2
CAL-51 [18], 3 nM | 102
CAL-51 [18], 30 nM | 91.8
CAL-51 [18], 100 nM | 64.3
CAL-85-1 [2], 10 nM | 95
CAL-85-1 [13], 3 nM | 89
CAL-85-1 [13], 30 nM | 80.6
CAL-85-1 [13], 100 nM | 69.4
CAL-120, 100 nM | 68.2
CAL-148 [5], 10 nM | 94.7
DU-4475 [4], 10 nM | 102
DU-4475 [15], 3 nM | 98.3
DU-4475 [15], 30 nM | 82.6
DU-4475 [15], 100 nM | 37.5
HCC1143, 100 nM | 71.2
HCC1599, 100 nM | 97.7
HCC1937, 100 nM | 65.7
HDQ-P1, 10 nM | 111
Hs578T, 100 nM | 51.3
MDA-MB-231 [1], 100 nM | 75.5
MDA-MB-231 [12], 10 nM | 101
MDA-MB-231 [12], 1000 nM | 58
MDA-MB-231 [12], 10000 nM | 33.3
MDA-MB-436 [6], 100 nM | 91.5
MDA-MB-436 [16], 10 nM | 133
MDA-MB-436 [16], 1000 nM | 54.7
MDA-MB-436 [16], 10000 nM | 70.8
MDA-MB-453 [7], 10 nM | 84.3
MDA-MB-453 [17], 3 nM | 91.8
MDA-MB-453 [17], 30 nM | 50.2
MDA-MB-453 [17], 100 nM | 44.3
MDA-MB-468, 100 nM | 62.6
MFM-223 [3], 100 nM | 77.7
MFM-223 [14], 10 nM | 79.3
MFM-223 [14], 1000 nM | 50.7
MFM-223 [14], 10000 nM | 30.8
SK-BR-3, 100 nM | 53

Conditions | EC50, CellTiter-Blue viability [nM]
CAL-51 [11] | 111
CAL-148 [10] | 184
